# Assay results reported in patent US10899769B2, “Imidazopiperazinone inhibitors of transcription activating proteins” (Board of Regents, The University of Texas System, priority 2018, dated 2021).
# What was measured:
# BRD4(49-170) bromodomain = BRD4(49-170) bromodomain (Homo sapiens (Human), UniProt O60885); assay: BRD4 AlphaScreen Assay; details: binding to biotin-H4(1-21) Ac-K5/8/12/16
# Method: (§1) Specific binding of the CBP or BRD4 bromodomain to the acetylated peptide derived from the H4 histone substrate (tetra acetylated H4(1-21) Ac-K5/8/12/16) was measured in absence or presence of inhibitors. The GST tagged bromodomains of CBP (1081-1197) and BRD4 (49-170) were obtained from BPS Bioscience and binding to the biotinylated H4(1-21) Ac-K5/8/12/16 (AnaSpec. 64989) was assessed via AlphaScreen technology (Perkin Elmer).
# (§2) 5 nM GST-CBP(1081-1197) and 20 nM biotin-H4(1-21) Ac-K5/8/12/16 (AnaSpec. 64989) were incubated with varying concentrations of CBP inhibitors in 15 μL of buffer containing 50 mM HEPES 7.5, […], 1 mM TCEP, and 0.003% Tween-20. After 30 minutes incubation at room temperature, 15 μL of detection buffer (BPS Bio. 33006) containing 7 μg/mL of Glutathione AlphaLisa acceptor beads (Perkin Elmer AL109) and 14 μg/mL of Streptavidin donor beads (Perkin Elmer 676002) was then added to the previous mixture. The reaction was incubated for an additional 2 hours at room temperature, and the AlphaScreen signal was quantified using the Envision Multilabel plate reader. As negative control, GST-CBP(1081-1197) was incubated with the non-acetylated biotin-H4(1-21) peptide(AnaSpec. 62555) and in presence of 0.25% of final DMSO concentration.
# (§3) the binding of 2.5 nM of BRD4(49-170) to 10 nM biotin-H4(1-21) Ac-K5/8/12/16 (AnaSpec. 64989) was assessed following the same procedure described for the CBP assay. The standard dose response curves were fitted by Genedata Screener software using the variable-slope model: Signal=Signalnegative control+(SignalDMSO control−Signalnegative control)/(1+(IC50/Dose)^Hill slope).
# (§4) Only Signal and Dose in the equation were treated as know values.
# [1] = molecular target: GST-CBP(1081-1197) bromodomain (Homo sapiens (Human), UniProt Q92793); assay: CBP AlphaScreen Assay; details: binding to biotin-H4(1-21) Ac-K5/8/12/16
# GST-CBP(1081-1197) bromodomain, sequence (Q92793 1081-1197): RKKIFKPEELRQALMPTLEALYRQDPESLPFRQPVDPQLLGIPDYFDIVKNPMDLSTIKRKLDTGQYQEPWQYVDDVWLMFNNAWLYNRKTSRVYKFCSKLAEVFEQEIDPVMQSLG
# Method: as §1, §2, §3, §4
Compound,IC50 (BRD4(49-170) bromodomain) [nM],IC50 [1] [nM]
"CC1C(=O)N(C)Cc2c(-c3cccc4nc(-c5cnn(C)c5)c(C#N)cc34)nc(C3CCOCC3)n21 (single isomer, unassigned) [Example 8b, 5-(5,7-dimethyl-6-oxo-3-(tetrahydro-2H-pyran-4-yl)-5,6,7,8-tetrahydroimidazo[1,5-a]pyrazin-1-yl)-2-(1-methyl-1H-pyrazol-4-yl)quinoline-3-carbonitrile]",332,2
"CC1C(=O)N(C)Cc2c(-c3cccc4cc(N5CCOCC5)ncc34)nc(C3CCOCC3)n21 (single isomer, unassigned) [Example 16b, 5,7-Dimethyl-1-(3-morpholinoisoquinolin-8-yl)-3-(tetrahydro-2H-pyran-4-yl)-7,8-dihydroimidazo[1,5-a]pyrazin-6(5H)-one]",353,3
"CC1C(=O)N(C)Cc2c(-c3cccc4nc(-c5cnn(C)c5)c(C(F)(F)F)cc34)nc(C3CCOCC3)n21 (single isomer, unassigned) [Example 26b, 5,7-Dimethyl-1-(2-(1-methyl-1H-pyrazol-4-yl)-3-(trifluoromethyl)quinolin-5-yl)-3-(tetrahydro-2H-pyran-4-yl)-7,8-dihydroimidazo[1,5-a]pyrazin-6(5H)-one]",11700,271
"CC1C(=O)N(C)Cc2c(-c3cccc4nc(-c5cnn(C)c5)c(C(F)F)cc34)nc(C3CCS(=O)(=O)CC3)n21 (single isomer, unassigned) [Example 29a, 1-(3-(Difluoromethyl)-2-(1-methyl-1H-pyrazol-4-yl)quinolin-5-yl)-3-(1,1-dioxidotetrahydro-2H-thiopyran-4-yl)-5,7-dimethyl-7,8-dihydroimidazo[1,5-a]pyrazin-6(5H)-one]",≥ 25000,6500
"CC1C(=O)N(C)Cc2c(-c3cccc4nc(-c5cnn(C)c5)c(C(F)F)cc34)nc(C3CCS(=O)(=O)CC3)n21 (single isomer, unassigned) [Example 29b, 1-(3-(Difluoromethyl)-2-(1-methyl-1H-pyrazol-4-yl)quinolin-5-yl)-3-(1,1-dioxidotetrahydro-2H-thiopyran-4-yl)-5,7-dimethyl-7,8-dihydroimidazo[1,5-a]pyrazin-6(5H)-one]",592,32
"Cc1cn(-c2cc3cccc(-c4nc(C5CCOCC5)n5c4CN(C)C(=O)C5C)c3cn2)cn1 (single isomer, unassigned) [Example 30a, 5,7-dimethyl-1-(3-(4-methyl-1H-imidazol-1-yl)isoquinolin-8-yl)-3-(tetrahydro-2H-pyran-4-yl)-7,8-dihydroimidazo[1,5-a]pyrazin-6(5H)-one]",96,1
"Cc1ncc(-c2cc3cccc(-c4nc(C5CCOCC5)n5c4CN(C)C(=O)C5C)c3cn2)s1 (single isomer, unassigned) [Example 31a, 5,7-Dimethyl-1-(3-(2-methylthiazol-5-yl)isoquinolin-8-yl)-3-(tetrahydro-2H-pyran-4-yl)-7,8-dihydroimidazo[1,5-a]pyrazin-6(5H)-one]",2690,38
"Cc1cn(-c2cc3ccc(F)c(-c4nc(C5CCOCC5)n5c4CN(C)C(=O)C5C)c3cn2)cn1 (single isomer, unassigned) [Example 33a, 1-(7-fluoro-3-(4-methyl-1H-imidazol-1-yl)isoquinolin-8-yl)-5,7-dimethyl-3-(tetrahydro-2H-pyran-4-yl)-7,8-dihydroimidazo[1,5-a]pyrazin-6(5H)-one]",≥ 25000,1610
"CC1C(=O)N(C)Cc2c(-c3c(F)ccc4cc(C5CCOCC5)ncc34)nc(C3CCOCC3)n21 (single isomer, unassigned) [Example 34a, 1-(7-Fluoro-3-(tetrahydro-2H-pyran-4-yl)isoquinolin-8-yl)-5,7-dimethyl-3-(tetrahydro-2H-pyran-4-yl)-7,8-dihydroimidazo[1,5-a]pyrazin-6(5H)-one]",≥ 25000,2460
"CC1C(=O)N(C)Cc2c(-c3c(F)ccc4cc(C5CCOCC5)ncc34)nc(C3CCOCC3)n21 (single isomer, unassigned) [Example 34b, 1-(7-Fluoro-3-(tetrahydro-2H-pyran-4-yl)isoquinolin-8-yl)-5,7-dimethyl-3-(tetrahydro-2H-pyran-4-yl)-7,8-dihydroimidazo[1,5-a]pyrazin-6(5H)-one]",1230,8

# Continued, values first:
IC50 (BRD4(49-170) bromodomain) [nM],IC50 [1] [nM],Compound
≥ 25000,513,"CC1C(=O)N(C)Cc2c(-c3cccc4nc(-c5cnn(C)c5)c(C#N)cc34)nc(C3CCOCC3)n21 (single isomer, unassigned) [Example 8a, 5-(5,7-dimethyl-6-oxo-3-(tetrahydro-2H-pyran-4-yl)-5,6,7,8-tetrahydroimidazo[1,5-a]pyrazin-1-yl)-2-(1-methyl-1H-pyrazol-4-yl)quinoline-3-carbonitrile]"
19700,170,"CC1C(=O)N(C)Cc2c(-c3cccc4cc(C5CCOCC5)ncc34)nc(C3CCOCC3)n21 (single isomer, unassigned) [Example 15a, 5,7-dimethyl-3-(tetrahydro-2H-pyran-4-yl)-1-(3-(tetrahydro-2H-pyran-4-yl)isoquinolin-8-yl)-7,8-dihydroimidazo[1,5-a]pyrazin-6(5H)-one]"
195,2,"CC1C(=O)N(C)Cc2c(-c3cccc4cc(C5CCOCC5)ncc34)nc(C3CCOCC3)n21 (single isomer, unassigned) [Example 15b, 5,7-dimethyl-3-(tetrahydro-2H-pyran-4-yl)-1-(3-(tetrahydro-2H-pyran-4-yl)isoquinolin-8-yl)-7,8-dihydroimidazo[1,5-a]pyrazin-6(5H)-one]"
≥ 25000,1120,"CC1C(=O)N(C)Cc2c(-c3cccc4cc(N5CCOCC5)ncc34)nc(C3CCOCC3)n21 (single isomer, unassigned) [Example 16a, 5,7-Dimethyl-1-(3-morpholinoisoquinolin-8-yl)-3-(tetrahydro-2H-pyran-4-yl)-7,8-dihydroimidazo[1,5-a]pyrazin-6(5H)-one]"
193,2,"CC1C(=O)N(C)Cc2c(-c3cccc4nc(-c5cnn(C)c5)c(C(F)(F)F)cc34)nc(C3CCOCC3)n21 (single isomer, unassigned) [Example 26a, 5,7-Dimethyl-1-(2-(1-methyl-1H-pyrazol-4-yl)-3-(trifluoromethyl)quinolin-5-yl)-3-(tetrahydro-2H-pyran-4-yl)-7,8-dihydroimidazo[1,5-a]pyrazin-6(5H)-one]"
18600,373,"Cc1cn(-c2cc3cccc(-c4nc(C5CCOCC5)n5c4CN(C)C(=O)C5C)c3cn2)cn1 (single isomer, unassigned) [Example 30b, 5,7-dimethyl-1-(3-(4-methyl-1H-imidazol-1-yl)isoquinolin-8-yl)-3-(tetrahydro-2H-pyran-4-yl)-7,8-dihydroimidazo[1,5-a]pyrazin-6(5H)-one]"
106,2,"Cc1ncc(-c2cc3cccc(-c4nc(C5CCOCC5)n5c4CN(C)C(=O)C5C)c3cn2)s1 (single isomer, unassigned) [Example 31b, 5,7-Dimethyl-1-(3-(2-methylthiazol-5-yl)isoquinolin-8-yl)-3-(tetrahydro-2H-pyran-4-yl)-7,8-dihydroimidazo[1,5-a]pyrazin-6(5H)-one]"
≥ 25000,490,"CC1C(=O)N(C)Cc2c(-c3cccc4nc(-c5cnn(C)c5)c(C(F)F)cc34)nc(C3(C)CCOCC3)n21 (single isomer, unassigned) [Example 32a, 1-(3-(Difluoromethyl)-2-(1-methyl-1H-pyrazol-4-yl)quinolin-5-yl)-5,7-dimethyl-3-(4-methyltetrahydro-2H-pyran-4-yl)-7,8-dihydroimidazo[1,5-a]pyrazin-6(5H)-one]"
351,2,"CC1C(=O)N(C)Cc2c(-c3cccc4nc(-c5cnn(C)c5)c(C(F)F)cc34)nc(C3(C)CCOCC3)n21 (single isomer, unassigned) [Example 32b, 1-(3-(Difluoromethyl)-2-(1-methyl-1H-pyrazol-4-yl)quinolin-5-yl)-5,7-dimethyl-3-(4-methyltetrahydro-2H-pyran-4-yl)-7,8-dihydroimidazo[1,5-a]pyrazin-6(5H)-one]"
2120,6,"Cc1cn(-c2cc3ccc(F)c(-c4nc(C5CCOCC5)n5c4CN(C)C(=O)C5C)c3cn2)cn1 (single isomer, unassigned) [Example 33b, 1-(7-fluoro-3-(4-methyl-1H-imidazol-1-yl)isoquinolin-8-yl)-5,7-dimethyl-3-(tetrahydro-2H-pyran-4-yl)-7,8-dihydroimidazo[1,5-a]pyrazin-6(5H)-one]"
